Assay results: patent US12281121B2, “N-containing heteroaryl derivative and pharmaceutical composition comprising same as active ingredient for prevention or treatment of cancer” (VORONOI Inc., priority 2019, dated 2025)

Experiments:
[1] = test system: Ba/F3 KIF5B-RET (V804M) cells; assay: Cell proliferation inhibition, CellTiter-Glo; assay type: cell-based; conditions: Mus musculus, BaF3, 72 hours
Experimental: (§1) Among lung cancer cell lines, which express RET fusion genes, LC-2/ad cells were cultured after adding 10% FBS (HyClone) to RPMI:F12 (1:1) (Invitrogen), and F-12 (Invitrogen) supplemented with 10% FBS was used for TT cells. RPMI-1640 supplemented with 10% FBS and 5 ng/ml IL-3 (R&D Systems) was used for Ba/F3 cells. Transduced Ba/F3 cells were cultured by adding 1 ug/ml puromycin (Invitrogen) to the same medium. 24 hours before cells were treated with the compound, 3000 to 5000 cells were aliquoted into each well of a white clear bottom 96 well plate (Corning). The compound was diluted in DMSO (3-fold dilution, a total of 12 concentrations) and the compound was injected by 0.5 μl such that the final concentration was 0.3 nM to 50 μM. For the measurement of living cells, 72 hours after the compound treatment, the cells were stored at room temperature for 10 minutes using a CellTiter-Glo luminescent cell-viability agent (Promega), and then the luminescence intensity was measured using a reader (SynergyNeo, Biotek). Each experiment was repeated in triplicate. The result value was calculated by the cell growth ratio (%) compared to the control. A graph was drawn using the GraphPad Prism version 5.0 program, and a GI50 (nM) value was calculated.
(§2) In the cell assay column, LC-2/ad (with CCDC6-RET gene) is a lung cancer cell line, a TT cell line ([…]) is a thyroid cancer cell line, Ba/F3 CCDC6-RET (WT), Ba/F3 KIF5B-RET (WT), and Ba/F3 KIF5B-RET (V804M) are cells in which disease-related traits (CCDC6-RET, KIF5B-RET, and KIF5B-RET (V804M)) are introduced into Ba/F3 cells, and Ba/F3 (naive) is a cell which is not transduced.

[2] = target: T1, RET (WT) (Homo sapiens, UniProt P07949); assay: RET enzyme inhibitory ability, ADP-Glo kinase assay; assay type: biochemical; conditions: ATP 10 μM, 25° C., 1 hour
T1 construct: human RET (658-end, SIGNALCHEM); purchased SIGNALCHEM
T1 sequence (P07949 658-1114 limits assumed): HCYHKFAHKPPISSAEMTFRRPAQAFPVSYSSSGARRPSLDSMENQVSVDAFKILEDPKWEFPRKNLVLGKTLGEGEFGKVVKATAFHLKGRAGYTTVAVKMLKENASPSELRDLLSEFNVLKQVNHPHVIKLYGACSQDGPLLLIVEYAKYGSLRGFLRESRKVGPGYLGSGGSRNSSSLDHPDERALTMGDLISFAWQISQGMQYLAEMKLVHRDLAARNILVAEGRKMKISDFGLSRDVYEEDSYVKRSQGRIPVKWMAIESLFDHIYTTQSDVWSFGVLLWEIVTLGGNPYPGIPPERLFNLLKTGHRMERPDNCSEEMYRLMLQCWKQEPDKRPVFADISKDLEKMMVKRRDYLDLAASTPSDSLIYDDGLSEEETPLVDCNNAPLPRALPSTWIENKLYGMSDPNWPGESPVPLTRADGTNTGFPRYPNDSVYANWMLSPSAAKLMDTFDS
Experimental: The Example compound was reacted with a purified human RET (658-end, SIGNALCHEM) enzyme to evaluate the enzyme inhibitory ability by the following method. As a reaction buffer, a composition of 40 mM Tris-HCl pH 7.4, 20 mM MgCl2, 0.5 mg/mL BSA, and 50 μM DTT was used, and all experimental materials were reacted on the reaction buffer. After the human RET (658-end, 0.8 ng) enzyme was reacted with purified ATP (10 μM) and a specific substrate solution at 25° C. for 1 hour during the experiment, the enzyme activity was confirmed using in vitro ADP-Glo™ kinase assay (Promega). Luminescence was measured by reacting the enzyme activity reaction solution, the ADP-Glo reaction solution, and the enzyme activity detection solution at a ratio of 2:2:1. The degree of inhibition of enzyme activity according to the treatment concentration of each compound was calculated based on the […] of the enzyme activity of a solvent control group in which a compound was not treated, and in this case, the concentration of each compound which suppresses the […] enzyme activity by 50% was determined as an IC50 (nM) value. The IC50 (nM) of each compound was determined by 3 datasets and obtained using Prism (version 7.01, GraphPad) software.
In the enzyme assay column, RET (WT) is a non-mutated form, RET (V804M) is a mutated form in which the V amino acid at position 804 of the RET is substituted with M, and CCDC6-RET is a form in which the RET (WT) gene and CCDC6 gene are fused.

[3] = test system: Ba/F3 KIF5B-RET (WT) cells; assay: Cell proliferation inhibition, CellTiter-Glo; assay type: cell-based; conditions: Mus musculus, BaF3, 72 hours
Experimental: as §1, §2

[4] = test system: Ba/F3 (naive) cells; assay: Cell proliferation inhibition, CellTiter-Glo; assay type: cell-based; conditions: Mus musculus, BaF3; Ba/F3 not transduced, 72 hours
Experimental: as §1, §2

[5] = test system: Ba/F3 CCDC6-RET (WT) cells; assay: Cell proliferation inhibition, CellTiter-Glo; assay type: cell-based; conditions: BaF3/CCDC6-RET, 72 hours
Experimental: as §1, §2

Row | SMILES | GI50 [1] | IC50 [2] | GI50 [3] | GI50 [4] | GI50 [5]
1 | COc1ccc(CN2C(C)CN(c3ccc(-c4nc(Nc5cc(C)[nH]n5)c5ccccc5n4)cn3)C[C@H]2C)cn1 (stereo in doubt) [Example 35, 2-(6-((3R,5S)-4-((6-methoxy-pyridin-3-yl)methyl)-3,5-dimethyl-piperazin-1-yl)pyridin-3-yl)-N-(5-methyl-1H-pyrazol-3-yl)quinazolin-4-amine] | 328 nM |  |  |  | 
2 | Cc1cc(Nc2nc(-c3ccc(N4CC5CC(C4)N5Cc4ncc(C)s4)nc3)nc3ccccc23)n[nH]1 [Example 5, N-(5-methyl-1H-pyrazol-3-yl)-2-(6-(6-((5-methylthiazol-2-yl)methyl)-3,6-diazabicyclo [3.1.1]heptan-3-yl)pyridin-3-yl)quinazolin-4-amine] | 4 nM | 18 nM | 7 nM | 1060 nM | 41 nM
3 | COc1ccc(CN2CC3CC(C2)N3c2ccc(-c3nc(Nc4cc(C)[nH]n4)c4ccccc4n3)cn2)cn1 [Example 6, 2-(6-(3-((6-methoxypyridin-3-yl)methyl)-3,6-diazabicyclo [3.1.1]heptan-6-yl)pyridin-3-yl)-N-(5-methyl-1H-pyrazol-3-yl)quinazolin-4-amine] | 70 nM | 27 nM | 67 nM | 9220 nM | 166 nM
4 | Cc1cc(Nc2nc(-c3ccc(N4CC5CC(C4)N5Cc4ccc(C(F)(F)F)nc4)nc3)nc3ccccc23)n[nH]1 [Example 8, N-(5-methyl-1H-pyrazol-3-yl)-2-(6-(6-((6-(tri-fluoromethyl)py-ridin-3-yl)meth-yl)-3,6-diaza-bicyclo[3.1.1]heptan-3-yl)pyridin-3-yl)quinazolin-4-amine] | 23 nM | 32 nM | 12 nM | 1980 nM | 51 nM
5 | Cc1cc(Nc2nc(-c3ccc(N4CC5CC(C4)N5Cc4ccc(C#N)nc4)nc3)nc3ccccc23)n[nH]1 [Example 9, 5-((3-(5-(4-((5-methyl-1H-py-razol-3-yl)amino)quinazolin-2-yl)pyridin-2-yl)-3,6-diazabicyclo [3.1.1]heptan-6-yl)methyl)pico-linonitrile] | 23 nM | 30 nM | 23 nM | 822 nM | 62 nM
6 | Cc1ccc(CN2C3CC2CN(c2ccc(-c4nc(Nc5cc(C)[nH]n5)c5ccccc5n4)cn2)C3)cn1 [Example 10] | 10 nM | 10 nM | 9 nM | 920 nM | 39 nM
7 | Cc1cc(Nc2nc(-c3ccc(N4CC5CC(C4)N5Cc4cc(F)c(OC(C)C)c(F)c4)nc3)nc3ccccc23)n[nH]1 [Example 11, 2-(6-(6-(3,5-difluoro-4-isopropoxy-benzyl)-3,6-diazabicyclo [3.1.1]heptan-3-yl)pyridin-3-yl)-N-(5-methyl-1H-pyrazol-3-yl)quinazolin-4-amine] | 119 nM |  |  |  | 
8 | COc1ccc(CN2C3CC2CN(c2ccc(-c4nc(Nc5cc(C)[nH]n5)c5ccccc5n4)cn2)C3)cc1C#N [Example 12, 2-methoxy-5-((3-(5-(4-((5-methyl-1H-pyrazol-3-yl)amino)quina-zolin-2-yl)pyridin-2-yl)-3,6-diazabicyclo [3.1.1]heptan-6-yl)methyl)benzo-nitrile] | 49 nM | 38 nM | 15 nM | 2540 nM | 52 nM
9 | Cc1cc(Nc2nc(-c3ccc(N4CC5CC(C4)N5Cc4cnc[nH]4)nc3)nc3ccccc23)n[nH]1 [Example 13, 2-(6-(6-((1H-imidazol-5-yl)methyl)-3,6-diazabicyclo [3.1.1]heptan-3-yl)pyridin-3-yl)-N-(5-methyl-1H-pyrazol-3-yl)quinazolin-4-amine] | 2450 nM |  |  |  | 
10 | COc1ccc(CN2C3CC2CN(c2ccc(-c4nc(Nc5cc(C)[nH]n5)c5ccccc5n4)cn2)C3)cc1 [Example 14, 2-(6-(6-(4-methoxybenzyl)-3,6-diaza-bicyclo[3.1.1]heptan-3-yl)pyridin-3-yl)-N-(5-methyl-1H-pyrazol-3-yl)quinazolin-4-amine] | 22 nM | 10 nM | 11 nM | 2700 nM | 33 nM
11 | Cc1cc(Nc2nc(-c3ccc(N4CC5CC(C4)N5Cc4ccc(OC(C)C)nc4)nc3)nc3ccccc23)n[nH]1 [Example 15, 2-(6-(6-((6-iso-propoxypyridin-3-yl)methyl)-3,6-diazabicyclo [3.1.1]heptan-3-yl)pyridin-3-yl)-N-(5-methyl-1H-pyrazol-3-yl)quinazolin-4-amine] | 30 nM | 40 nM | 24 nM | 3100 nM | 75 nM
12 | COc1ncc(CN2C3CC2CN(c2ccc(-c4nc(Nc5cc(C)[nH]n5)c5ccccc5n4)cn2)C3)cc1Cl [Example 16, 2-(6-(6-((5-chloro-6-methoxypyridin-3-yl)methyl)-3,6-diazabicyclo [3.1.1]heptan-3-yl)pyridin-3-yl)-N-(5-methyl-1H-pyrazol-3-yl)quinazolin-4-amine] | 39 nM | 60 nM | 42 nM | 4010 nM | 127 nM
13 | Cc1cc(Nc2nc(-c3ccc(N4CC5CC(C4)N5Cc4ccc(NS(C)(=O)=O)cc4)nc3)nc3ccccc23)n[nH]1 [Example 21, N-(4-((3-(5-(4-((5-methyl-1H-pyrazol-3-yl)a-mino)quinazolin-2-yl)pyridin-2-yl)-3,6-diazabicyclo [3.1.1]heptan-6-yl)methyl)phenyl) methane-sulfonamide] | 117 nM |  |  |  | 
14 | Cc1cc(Nc2nc(-c3ccc(N4CC5CC(C4)N5Cc4ccn(C)c(=O)c4)nc3)nc3ccccc23)n[nH]1 [Example 27, 1-methyl-4-((3-(5-(4-((5-methyl-1H-pyrazol-3-yl)amino)quina-zolin-2-yl)pyridin-2-yl)-3,6-diazabicyclo [3.1.1]heptan-6-yl)methyl)pyri-din-2(1H)-one] | 159 nM |  |  |  | 
15 | COc1ccc(CN2C[C@H](C)N(c3ccc(-c4nc(Nc5cc(C)[nH]n5)c5ccccc5n4)cn3)C[C@H]2C)cn1 [Example 28, 2-(6-((2S,5R)-4-((6-methoxy-pyridin-3-yl)methyl)-2,5-di-methylpiperazin-1-yl)pyridin-3-yl)-N-(5-methyl-1H-pyrazol-3-yl)quinazolin-4-amine] | 321 nM |  |  |  | 
16 | COc1ccc(CN2C[C@@H](C)N(c3ccc(-c4nc(Nc5cc(C)[nH]n5)c5ccccc5n4)cn3)C[C@@H]2C)cn1 [Example 32] | 239 nM |  |  |  | 
17 | COc1ccc(CN2CCN(c3ccc(-c4nc(Nc5cc(C)[nH]n5)c5ccccc5n4)cn3)C[C@@H]2C)cn1 [Example 33, (S)-2-(6-(4-((6-methoxypyridin-3-yl)methyl)-3-methylpiperazin-1-yl)pyridin-3-yl)-N-(5-methyl-1H-pyrazol-3-yl)quinazolin-4-amine] | 121 nM |  |  |  | 
